Molecules are shown by their SMILES.

This test deals with human LPAR1 (Homo sapiens (Human), UniProt Q92633). The experiment in a line: LPAR1 intracellular calcium mobilization assay (antagonist mode, FLIPR). Format: cell-based. As to conditions: CHO-K1 EDG2 cells expressing human LPAR1, LPA 18:2 at EC80 (100 nM), test compound 0.5 nM to 10 μM.
Chain of human LPAR1 (Q92633 whole entry): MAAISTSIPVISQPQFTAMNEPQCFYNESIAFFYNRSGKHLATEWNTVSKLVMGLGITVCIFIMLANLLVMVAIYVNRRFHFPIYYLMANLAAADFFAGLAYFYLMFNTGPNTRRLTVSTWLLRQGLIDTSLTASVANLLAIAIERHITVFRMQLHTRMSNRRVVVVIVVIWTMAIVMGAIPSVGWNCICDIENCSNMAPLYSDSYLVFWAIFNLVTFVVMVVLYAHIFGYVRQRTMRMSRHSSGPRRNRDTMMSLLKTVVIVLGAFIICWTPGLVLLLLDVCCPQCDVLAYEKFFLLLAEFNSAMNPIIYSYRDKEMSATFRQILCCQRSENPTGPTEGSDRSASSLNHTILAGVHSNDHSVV
With `Cc1ncc(F)cc1[C@@H](C)OC(=O)Nc1c(-c2ccc(NC(=O)C3(C#N)CC3)cn2)nnn1C` [Compound 177, (R)-1-(5-fluoro-2-methylpyridin-3-yl)ethyl (4-(5-(1-cyanocyclopropane-1-carboxamido)pyridin-2-yl)-1-methyl-1H-1,2,3-triazol-5-yl)carbamate], the EC50 (commonly the concentration that produces a half-maximal response) was 48.3 nM.
As to `C[C@@H](OC(=O)Nc1c(-c2ncc(NC(=O)C3(C#N)CC3)cn2)nnn1C)c1cc(F)cnc1Cl` [Compound 329, (R)-1-(2-chloro-5-fluoropyridin-3-yl)ethyl (4-(5-(1-cyanocyclopropane-1-carboxamido)pyrimidin-2-yl)-1-methyl-1H-1,2,3-triazol-5-yl)carbamate], the EC50 was 749 nM.
`C[C@@H](OC(=O)Nc1c(-c2ccc(NC(=O)C3[C@@H]4COC[C@@H]34)cn2)nnn1C)c1cccnc1Cl` (stereo partly drawn) [Compound 158, (R)-1-(2-chloropyridin-3-yl)ethyl (4-(5-((1R,5R)-3-oxabicyclo[3.1.0]hexane-6-carboxamido)pyridin-2-yl)-1-methyl-1H-1,2,3-triazol-5-yl)carbamate]: the EC50 was 117 nM.
To `C[C@@H](OC(=O)Nc1c(-c2ccc(NC(=O)[C@@H]3C[C@H]3[N+](=O)[O-])cn2)nnn1C)c1cc(F)cnc1F` (mixture of isomers) [Compound 211, (R)-1-(2,5-difluoropyridin-3-yl)ethyl (1-methyl-4-(5-((1RS,2RS)-2-nitrocyclopropane-1-carboxamido)pyridin-2-yl)-1H-1,2,3-triazol-5-yl)carbamate] belongs 37.4 nM; to `C[C@@H](OC(=O)Nc1c(-c2ccc(NC(=O)[C@@H]3CC3(F)F)cn2)nnn1C)c1cccnc1Cl` [Compound 65, (R)-1-(2-chloropyridin-3-yl)ethyl (4-(5-((S)-2,2-difluorocyclopropane-1-carboxamido)pyridin-2-yl)-1-methyl-1H-1,2,3-triazol-5-yl)carbamate], 81.9 nM.
The figure for `CC(=O)Nc1ccc(-c2nnn(C)c2NC(=O)O[C@H](C)c2cc(F)cnc2Cl)nc1` [Compound 15, (R)-1-(2-chloro-5-fluoropyridin-3-yl)ethyl (4-(5-acetamidopyridin-2-yl)-1-methyl-1H-1,2,3-triazol-5-yl)carbamate] is 452 nM.
The figure for `C[C@@H](OC(=O)Nc1c(-c2ccc(NC(=O)C3CCC3)cn2)nnn1C)c1cccnc1Cl` [Compound 35, (R)-1-(2-chloropyridin-3-yl)ethyl (4-(5-(cyclobutanecarboxamido)pyridin-2-yl)-1-methyl-1H-1,2,3-triazol-5-yl)carbamate] is 103 nM; for `C[C@@H](OC(=O)Nc1c(-c2ccc(NC(=O)c3ccnc(N)c3)cn2)nnn1C)c1cc(F)cnc1F` [Compound 232, (R)-1-(2,5-difluoropyridin-3-yl)ethyl (4-(5-(2-aminoisonicotinamido)pyridin-2-yl)-1-methyl-1H-1,2,3-triazol-5-yl)carbamate] it is 1110 nM; for `C[C@@H](OC(=O)Nc1c(-c2ccc(NC(=O)[C@H]3C[C@@H]3C#N)cn2)nnn1C)c1cccnc1Cl` [Compound 50, (R)-1-(2-chloropyridin-3-yl)ethyl (4-(5-((1S,2S)-2-cyanocyclopropane-1-carboxamido)pyridin-2-yl)-1-methyl-1H-1,2,3-triazol-5-yl)carbamate] it is 1760 nM.
Turning to `CC1CC1(C#N)C(=O)Nc1ccc(-c2nnn(C)c2NC(=O)O[C@H](C)c2cccnc2Cl)nc1` (stereo partly drawn) [Compound 148, (R)-1-(2-chloropyridin-3-yl)ethyl (4-(5-(1-cyano-2-methylcyclopropane-1-carboxamido)pyridin-2-yl)-1-methyl-1H-1,2,3-triazol-5-yl)carbamate], the EC50 worked out at 30.4 nM.
Regarding `C[C@@H](OC(=O)Nc1c(-c2ccc(NC(=O)C34CCC(F)(CC3)CC4)cn2)nnn1C)c1cccnc1Cl` [Compound 114, (R)-1-(2-chloropyridin-3-yl)ethyl (4-(5-(4-fluorobicyclo[2.2.2]octane-1-carboxamido)pyridin-2-yl)-1-methyl-1H-1,2,3-triazol-5-yl)carbamate], the EC50 stood at 504 nM.
In the case of `Cc1nnc(C(=O)Nc2ccc(-c3nnn(C)c3NC(=O)O[C@H](C)c3cc(F)cnc3F)nc2)o1` [Compound 257, (R)-1-(2,5-difluoropyridin-3-yl)ethyl (1-methyl-4-(5-(5-methyl-1,3,4-oxadiazole-2-carboxamido)pyridin-2-yl)-1H-1,2,3-triazol-5-yl)carbamate], the EC50 came out at 443 nM.
Regarding `C[C@@H](OC(=O)Nc1c(-c2ccc(NC(=O)C3CC(O)(C(F)(F)F)C3)cn2)nnn1C)c1cccnc1Cl` (stereo partly drawn) [Compound 136, (R)-1-(2-chloropyridin-3-yl)ethyl (4-(5-(3-hydroxy-3-(trifluoromethyl)cyclobutane-1-carboxamido)pyridin-2-yl)-1-methyl-1H-1,2,3-triazol-5-yl)carbamate], the EC50 is 602 nM.
To `CC(C#N)C(=O)Nc1ccc(-c2nnn(C)c2NC(=O)O[C@H](C)c2cccnc2Cl)nc1` (stereo partly drawn) [Compound 143, (R)-1-(2-chloropyridin-3-yl)ethyl (4-(5-(2-cyanopropanamido)pyridin-2-yl)-1-methyl-1H-1,2,3-triazol-5-yl)carbamate] belongs 189 nM; to `CC(=O)Nc1ccc(-c2nnn(C)c2NC(=O)O[C@H](C)c2cccnc2Cl)cc1` [Compound 6, (R)-1-(2-chloropyridin-3-yl)ethyl (4-(4-acetamidophenyl)-1-methyl-1H-1,2,3-triazol-5-yl)carbamate], 1860 nM.
The figure for `C[C@@H](OC(=O)Nc1c(-c2ccc(NC(=O)c3ccc(C(F)(F)F)nc3)cn2)nnn1C)c1cccnc1F` [Compound 296, (R)-1-(2-fluoropyridin-3-yl)ethyl (1-methyl-4-(5-(6-(trifluoromethyl)nicotinamido)pyridin-2-yl)-1H-1,2,3-triazol-5-yl)carbamate] is 46.9 nM; for `C[C@@H](OC(=O)Nc1c(-c2ccc(NC(=O)[C@@H]3C[C@H]3C(F)F)cn2)nnn1C)c1cc(F)cnc1F` (mixture of isomers) [Compound 216, (R)-1-(2,5-difluoropyridin-3-yl)ethyl (4-(5-((1RS,2RS)-2-(difluoromethyl)cyclopropane-1-carboxamido)pyridin-2-yl)-1-methyl-1H-1,2,3-triazol-5-yl)carbamate] it is 22.4 nM; for `C[C@@H](OC(=O)Nc1c(-c2cnc(NC(=O)c3ccnc(F)c3F)cn2)nnn1C)c1cc(F)cnc1F` [Compound 323, (R)-1-(2,5-difluoropyridin-3-yl)ethyl (4-(5-(2,3-difluoroisonicotinamido)pyrazin-2-yl)-1-methyl-1H-1,2,3-triazol-5-yl)carbamate] it is 178 nM.
The figure for `C[C@@H](OC(=O)Nc1c(-c2ccc(NC(=O)C34CC(C(F)(F)F)(C3)C4)cn2)nnn1C)c1cccnc1F` [Compound 170, (R)-1-(2-fluoropyridin-3-yl)ethyl (1-methyl-4-(5-(3-(trifluoromethyl)bicyclo[1.1.1]pentane-1-carboxamido)pyridin-2-yl)-1H-1,2,3-triazol-5-yl)carbamate] is 31.8 nM.
With `C[C@@H](OC(=O)Nc1c(-c2ccc(NC(=O)C3(C#N)CCC3)cn2)nnn1C)c1cccnc1Cl` [Compound 66, (R)-1-(2-chloropyridin-3-yl)ethyl (4-(5-(1-cyanocyclobutane-1-carboxamido)pyridin-2-yl)-1-methyl-1H-1,2,3-triazol-5-yl)carbamate], the EC50 is 66.6 nM.
Take `C[C@@H](OC(=O)Nc1c(-c2ccc(NC(=O)CC#N)cn2)nnn1C)c1cccnc1Cl` [Compound 59, (R)-1-(2-chloropyridin-3-yl)ethyl (4-(5-(2-cyanoacetamido)pyridin-2-yl)-1-methyl-1H-1,2,3-triazol-5-yl)carbamate]: the concentration giving a half-maximal response (EC50) was 264 nM.
The figure for `C[C@@H](OC(=O)Nc1c(-c2ccc(NC(=O)C3(C#N)CCNC3)cn2)nnn1C)c1cc(F)cnc1F` (stereo partly drawn) [Compound 302, (R)-1-(2,5-difluoropyridin-3-yl)ethyl (4-(5-(3-cyanopyrrolidine-3-carboxamido)pyridin-2-yl)-1-methyl-1H-1,2,3-triazol-5-yl)carbamate] is 669 nM.
As for `C[C@@H](OC(=O)Nc1c(-c2ccc(NC(=O)C3(C(N)=O)CC3)cn2)nnn1C)c1cccnc1Cl` [Compound 92, (R)-1-(2-chloropyridin-3-yl)ethyl (4-(5-(1-carbamoylcyclopropane-1-carboxamido)pyridin-2-yl)-1-methyl-1H-1,2,3-triazol-5-yl)carbamate], the EC50 was found to be 601 nM.
To `CC(=O)NC12CC(C(=O)Nc3ccc(-c4nnn(C)c4NC(=O)O[C@H](C)c4cccnc4Cl)nc3)(C1)C2` [Compound 312] belongs 1530 nM.
In the case of `C[C@@H](OC(=O)Nc1c(-c2ccc(NC(=O)C3CC4(CCC4)C3)cn2)nnn1C)c1cccnc1Cl` [Compound 73, (R)-1-(2-chloropyridin-3-yl)ethyl (1-methyl-4-(5-(spiro[3.3]heptane-2-carboxamido)pyridin-2-yl)-1H-1,2,3-triazol-5-yl)carbamate], the EC50 amounted to 17.3 nM.
The figure for `Cc1noc(C(=O)Nc2ccc(-c3nnn(C)c3NC(=O)O[C@H](C)c3cc(F)cnc3F)nc2)c1C` [Compound 276, (R)-1-(2,5-difluoropyridin-3-yl)ethyl (4-(5-(3,4-dimethylisoxazole-5-carboxamido)pyridin-2-yl)-1-methyl-1H-1,2,3-triazol-5-yl)carbamate] is 140 nM.
To `C[C@@H](OC(=O)Nc1c(-c2ccc(NC(=O)C3(c4cccnc4)CC3)cn2)nnn1C)c1cccnc1Cl` [Compound 94, (R)-1-(2-chloropyridin-3-yl)ethyl (1-methyl-4-(5-(1-(pyridin-3-yl)cyclopropane-1-carboxamido)pyridin-2-yl)-1H-1,2,3-triazol-5-yl)carbamate] belongs 4820 nM.
To `Cc1ncc(F)cc1[C@@H](C)OC(=O)Nc1c(-c2ccc(NC(=O)C34CC(C#N)(C3)C4)cn2)nnn1C` [Compound 178, (R)-1-(5-fluoro-2-methylpyridin-3-yl)ethyl (4-(5-(3-cyanobicyclo[1.1.1]pentane-1-carboxamido)pyridin-2-yl)-1-methyl-1H-1,2,3-triazol-5-yl)carbamate] belongs 140 nM.

The values above are taken from patent US11912686B2 (Gilead Sciences, Inc., priority 2020, dated 2024).
